We go through five compounds from patent US11331370B2, “Combination product for the prevention of sexually transmitted infections” (priority 2014, dated 2022).

The subject of one assay is HIV-1ADA-M (R5 virus). Description: MAGI assay in TZM-bl cells, anti-HIV activity. In kind it is cell-based. The note with it: 72 h, FIG. 1A. Here is the method:
(§1) FIG. 1 includes logarithmic plots which show the percentage of virus replication in the presence of GRFT (nM). Data in FIG. 1 A and FIG. 1 B confirm that GRFT has potent activity against HIV. […] In FIG. 1A, anti-HIV activity was tested in TZM-bl cells using the MAGI assay (R Begay O, et al. AIDS Research and Human Retroviruses, 2011 Sep. 1; 27(9):1019-24) and the laboratory strains HIV-1MN (X4 virus) and HIV-1ADA-M ([…]). In FIG. 1B, anti-HIV activity was tested in PBMC (Trkola A, et al., J Virol. 1999 November; 73(11):8966-74) using the laboratory strains HIV-1NL4-3. In FIG. 1C, anti-HPV activity was evaluated in HeLa cells using a luciferase reporter gene assay (Buck C B, et al. PLoS Pathog. 2006 Jul. 1; 2(7):e69) and testing the antiviral activity against three different HPV PsV types (16, 18 and 45). In FIGS. 1A, 1B, 1C, IC50 values are depicted as a vertical dotted line with the 95% confidence interval and were calculated using a dose-response-inhibition analysis on GraphPad Prism v 5.0 software. All the non-toxic GRFT concentrations were tested in triplicates and are shown with the mean±SD.
(§2) The activity of GRFT against HIV was verified in standard in vitro assays. […]

The test system of a further assay is HIV-1MN (X4 virus). The assay can be described thus: MAGI assay in TZM-bl cells, anti-HIV activity. In kind it is cell-based. Conditions: 72 h, FIG. 1A. Here is the method: as §1, §2
The next assay has as its system HIV-1NL4-3. The assay can be described thus: Anti-HIV activity in PBMC, p24 ELISA. Type of assay: cell-based. The note with it: activated PBMC, p24 ELISA day 7, FIG. 1B. Here is the method: as §1
Anti-HIV activity was also tested in peripheral blood mononucleated cells (PBMC) using the laboratory strains HIV-1NL4-3 according to conventional methods. See Trkola A, et al., J Virol. 1999 November; 73(11):8966-74. […]

A further assay has as its system HPV16 PsV. Description: HPV pseudovirus luciferase assay in HeLa cells. In kind it is cell-based.
A further assay deals with HPV18 PsV. Description: HPV pseudovirus luciferase assay in HeLa cells. In kind it is cell-based. Conditions: 72 h, FIG. 1C. Here is the method:
as §1
(§3) The activity of GRFT against HPV pseudoviruses was also investigated. […]

The next assay deals with HPV45 PsV. The assay can be described thus: HPV pseudovirus luciferase assay in HeLa cells. Type of assay: cell-based. Conditions: 72 h, FIG. 1C. As for the experimental part:
as §1, §3

A further assay deals with HIV-192BR014. The assay can be described thus: Anti-HIV combination activity in activated PBMCs, p24 ELISA, Chou-Talalay. In kind it is cell-based. Conditions: PBMC, HIV-1 92BR014, p24 day 7; combination value refers to the API in bold font (GRFT); read-out: Dm, median-effect dose (IC50). (An ELISA detects its analyte on a solid surface through an enzyme-linked reagent.)
In assay [1] the test system is HSV-2 G strain. The assay can be described thus: Plaque inhibition assay in Vero cells, inhibition of virus adsorption. Type of assay: cell-based. Conditions: 4° C., plaque forming units, FIG. 2A.
The subject of assay [2] is HSV-2 G strain. The assay can be described thus: Plaque inhibition assay in Vero cells, inhibition of virus entry. Type of assay: cell-based. Conditions: 4° C. then 37° C. 2 h, citric acid buffer, FIG. 2B.
Assay [3] concerns HSV-2 G strain. The assay can be described thus: Dye-uptake PrestoBlue antiviral assay in Vero cells. In kind it is cell-based. The note with it: 6 day incubation, combination value based on API with bold font. Here is the method: We previously reported that the combination of ZA and CG results in a potent antiviral synergy against HSV-2. Fernandez-Romero, J. A., et al., Antimicrobial agents and chemotherapy, 2012. 56(1): p. 358-68. […] Briefly, HSV-2 G strain and different concentrations of each compound or their combinations (based on equipotency IC50 ratios) were pre-incubated at 37° C. and added to Vero cells followed by a 6 day incubation at 37° C., 5% CO2 and 98% humidity. A dye-uptake PrestoBlue assay was performed to test antiviral activity. Relative fluorescent units (RFU) were measured at 570 nm for excitation and 600 nm for emission. The % of virus replication was calculated using the following formula: % Virus replication=[(O.Dcell control−O.Dcompound)/(O.Dcell control−O.Dvirus control)]*100. IC50 values were calculated using a dose-response-inhibition analysis on GraphPad Prism v 5.0 software. As provided therein, ¶ IC50 or % IC50 reduction values are based on API with bold font; NA=Not applicable.

In another assay the test system is HIV-1. The note with it: p24 ELISA and RT; cited from earlier work.

Protocol for HIV-192BR014: Briefly, in order to test anti-HIV activity, activated PBMCs were treated with varying equipotent doses (based on IC50 of each API) of GRFT, ZA or GRFT+ZA at 37° C. 1 h prior to exposure to 100 TCID50 of HIV-192BR014 in the presence of the same doses of each compound or combination (triplicates). Medium-treated (virus only) cells were included as a control. Eighteen hours later the cells were washed and plated in the presence of medium with IL-2 (with the only exception of those samples treated with ZA, where ZA was replaced). This step was repeated on day 4 and the supernatants collected on day 7 to measured HIV-1 p24 levels by ELISA. […] Combination indexes (CI) were estimated using the Chou-Talalay method (Chou, T. C. Pharmacological Reviews, 2006, 58(3): p. 621-81) with the Cacusyn for Windows software (Biosoft, Cambridge, United Kingdom). As provided therein, “CI” refers to a quantitative measure of the degree of drug interaction as follows: additive effect (CI=1); synergism (CI <1), or antagonism (CI >1). “Dm” refers to the median-effect dose (IC50); “m” refers to a measurement of the sigmoidicity of the dose-effect curve, and also represents the slope of the median-effect plot; and “r” refers to the linear correlation coefficient of the median-effect plot. […]
Protocol for HPV16 PsV: The activity of GRFT against HPV pseudoviruses was also investigated. […] All the non-toxic GRFT concentrations were tested in triplicates. The graphics show the mean±SD.
Medium-treated (virus only) cells were included as a control. […] In order to assay for anti-HPV activity, HeLa cells were treated with varying equipotent doses of GRFT, C or GRFT+C (based on IC50 of each API) at 37° C. and immediately exposed to HPV16 PsV (triplicates). Medium-treated (virus only) cells were included as a control. The luciferase assay was performed 72 h after infection. […] As provided therein, “CI” refers to a quantitative measure of the degree of drug interaction as follows: additive effect (CI=1); synergism (CI <1), or antagonism (CI >1). […]

A word on the IC50: it is the concentration that inhibits the measured activity by half. With Griffithsin [GRFT], the “anti-HIV activity in vitro” value in the assay on HIV-1ADA-M (R5 virus), with HIV-1MN (X4 virus) and in the assay with HIV-1NL4-3 was “potent anti-HIV activity” in each case. Moreover, the “in vitro activity against HPV16 PsV” value in the assay with HPV16 PsV (HeLa cells, luciferase assay, 72 h, FIG. 1C) is on record as “moderate in vitro activity”. Also, the 50% inhibitory concentration (IC50) was found to be 32.7 µM with HPV16 PsV (HeLa, HPV16 PsV, luciferase 72 h, combination value refers to the API in bold font, read-out: Dm, median-effect dose (IC50)) and 0.0004 µM in the assay with HIV-192BR014. Also, the “in vitro activity against HPV18 PsV” value in the assay with HPV18 PsV is reported as “moderate in vitro activity”. Moreover, the “in vitro activity against HPV45 PsV” value in the assay on HPV45 PsV was “moderate in vitro activity”. Moreover, in the assay on HSV-2 G strain [1], the “inhibition of virus adsorption” value is “does not prevent viral adsorption”. Also, the “inhibition of virus entry” value with HSV-2 G strain [2] is recorded as “prevents HSV-2 entry”. Besides, the “IC50 (95% confidence interval)” value in the assay with HSV-2 G strain [3] was determined as 19 µg/mL.

Turning to `[Cl][Hg][Cl]` [mercury chloride], the HIV-1 production entry in the assay on HIV-1 was “inhibited HIV-1 production”.

As for `CC(=O)[O-].CC(=O)[O-].[Cd+2]` [cadmium acetate], the HIV-1 production result in the assay on HIV-1 was “inhibited HIV-1 production”.

For the compound `CC(=O)[O-].CC(=O)[O-].[Zn+2]` [ZA, zinc acetate], in the assay with HIV-192BR014, the IC50 came to 48.3 µM. Also, in the assay with HSV-2 G strain [3], the “IC50 (95% confidence interval)” value is 58.2 µg/mL.

In the case of `[Cl-].[Cl-].[Zn+2]` [zinc chloride], in the assay on HIV-1, the HIV-1 production result was “inhibited HIV-1 production”.
